Results: patent US5576305A, “Intercellular adhesion mediators” (Cytel Corporation, priority 1995, dated 1996)

Experiments:
[1] = tested on: selectin; assay: inhibitory effect of oligosaccharides on selectin-mediated adhesion; format: cell-based; settings: in words
[2] = tested on: rolling leukocytes; assay: leukocyte rolling (histamine-induced recruitment of rolling leukocytes); format: in vivo, rat; settings: FIG. 15, in words
[3] = tested on: recombinant E-selectin; assay: inhibition of binding of HL-60 cells to recombinant E-selectin; format: cell-based; settings: FIG. 13, concentration dependence, in words

Compound | inhibitory effect relative to the tetrasaccharide [1] | recruitment of rolling leukocytes / leukocyte rolling [2] | inhibition of binding of HL-60 cells to recombinant E-selectin [3]
NeuAcα2,3Galβ1,4(Fucα1,3)GlcNAcβ1,3Galβ-- | substantially more inhibitory effect than the tetrasaccharide |  | 
CCOC1OC(CO)C(O)C(OC2OC(CO)C(OC3OC(CO)C(O)C(OC4(C(=O)O)CC(O)C(NC(C)=O)C(C(O)C(O)CO)O4)C3O)C(OC3OC(C)C(O)C(O)C3O)C2NC(C)=O)C1O [Z, Ethyl (sodium (5-acetamido-3,5-dideoxy-α-D-glycero-D-galacto-2-nonulopyanosylonate))-(2-3)-O-(β-D-galactopyranosyl)-(1-4)-O-((α-L-fucopyranosyl)-(1-3))-O-(2-acetamido-2-deoxy-β-D-glucopyranosyl)-(1-3)-O-β-D-galactopyranoside] |  | inhibited leukocyte rolling | inhibition of binding of HL-60 cells to recombinant E-selectin in a concentration dependent manner
CCO[C@@H]1O[C@H](CO)[C@H](O)[C@H](O[C@@H]2O[C@H](CO)[C@@H](O[C@@H]3O[C@H](CO)[C@H](O)[C@H](O[C@]4(C(=O)O)C[C@H](O)[C@@H](NC(C)=O)[C@H]([C@H](O)[C@H](O)CO)O4)[C@H]3O)[C@H](O)[C@H]2NC(C)=O)[C@H]1O [SLN, reference compound] |  | had no effect | 
